{
  "source": "paper PMC3425516",
  "about": "(PLoS ONE, 2012)",
  "key": {"[1]": {"system": "human HCT116 colorectal cancer xenograft", "test": "HCT116 xenograft, tumor growth delay to 1,200 mm^3 endpoint", "type": "in vivo, nude mice", "conditions": "for No. of CR (complete regression): 8 mice per group; for %TGD (tumor growth delay): [(T-C)/C]×100; for T-C: median TTE treated versus control", "experimental": "(§1) The human HCT116 colorectal adenocarcinoma cells used for implantation were harvested during log phase growth and resuspended in phosphate-buffered saline at 5×10^7 cells/mL. Each mouse was injected s.c. in the right flank with 1.0×10^7 cells (0.2 mL cell suspension). Tumors were monitored twice weekly and then daily as their volumes approached 1,200 mm^3. Tumor size, in mm^3, was calculated from: where w = width and l = length in mm of the tumor. Tumor volume = (w^2×l)/2.\nThe logrank test was used to determine the statistical significance of the difference between the TTE values of two groups, except any NTR deaths. […] The two-tailed statistical analyses were conducted at P = 0.05. Kaplan-Meier plots show the percentage of animals remaining in the study versus time. The Kaplan-Meier plots use the same data set as the logrank test.\n(§2) Once a tumor was palpable with the size of approximately 55 mm^3, mice were randomized into vehicle control and treatment groups (8 mice per group). Control mice received the vehicle (0.5% carboxymethyl cellulose +0.1% Tween 80). Tumors in all 3 groups were allowed to reach an endpoint volume of 1,200 mm^3."}, "[2]": {"molecular_target": "recombinant human HDAC2 (Homo sapiens, UniProt Q92769)", "sequence (Q92769 whole entry)": "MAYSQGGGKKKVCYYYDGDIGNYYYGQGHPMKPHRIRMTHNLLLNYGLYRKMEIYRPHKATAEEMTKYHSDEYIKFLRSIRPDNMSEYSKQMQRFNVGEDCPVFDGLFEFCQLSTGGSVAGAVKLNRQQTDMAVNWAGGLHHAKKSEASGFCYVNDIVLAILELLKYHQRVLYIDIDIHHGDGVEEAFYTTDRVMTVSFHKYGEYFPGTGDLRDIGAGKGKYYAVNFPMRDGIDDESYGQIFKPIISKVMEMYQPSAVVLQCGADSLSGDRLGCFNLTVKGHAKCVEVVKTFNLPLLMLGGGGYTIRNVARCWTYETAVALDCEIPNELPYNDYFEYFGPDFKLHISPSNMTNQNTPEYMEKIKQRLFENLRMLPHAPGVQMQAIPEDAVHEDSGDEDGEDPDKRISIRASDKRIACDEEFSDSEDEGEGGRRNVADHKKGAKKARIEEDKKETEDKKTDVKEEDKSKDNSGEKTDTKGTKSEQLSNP", "test": "HDAC biochemical assay (fluorogenic)", "conditions": "Class I, mean±SE", "from_the_text": "(§5) The HDACs in vitro activities of recombinant human HDAC 1, 2, 4, 6 and 8 (BPS Biosciences) were detected by fluorigenic release of 7-amino-4-methylcoumarin from substrate upon deacetylase enzymatic activity."}, "[3]": {"molecular_target": "recombinant human HDAC8 (Homo sapiens, UniProt Q9BY41)", "sequence (Q9BY41 whole entry)": "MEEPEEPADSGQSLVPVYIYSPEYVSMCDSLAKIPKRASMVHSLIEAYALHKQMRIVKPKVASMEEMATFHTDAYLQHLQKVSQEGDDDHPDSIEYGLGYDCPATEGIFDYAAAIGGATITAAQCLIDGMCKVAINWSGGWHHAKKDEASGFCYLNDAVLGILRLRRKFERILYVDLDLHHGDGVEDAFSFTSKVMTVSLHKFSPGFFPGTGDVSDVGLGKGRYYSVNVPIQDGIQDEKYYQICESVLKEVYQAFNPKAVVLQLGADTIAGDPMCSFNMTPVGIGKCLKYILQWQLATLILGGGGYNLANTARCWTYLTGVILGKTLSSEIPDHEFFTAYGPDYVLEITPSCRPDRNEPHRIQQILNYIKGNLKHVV", "test": "biochemical", "from_the_text": "as §5"}, "[4]": {"system": "HCT116 cells", "test": "Western blot histone H3 and α-tubulin acetylation", "type": "cell-based, human", "conditions": "24 h", "experimental": "(§3) For total lysate, cells were lysed with the 120 µL ice-cold lysis buffer [10 mmol/L Tris-HCl (pH 7.4), 150 mmol/L NaCl, 1 mmol/L EGTA, 1 mmol/L phenylmethylsulfonyl fluoride, 10 µg/mL aprotinin, 10 µg/mL leupeptin, 1 mM sodium orthovandate, 1 mM NaF, and 1% Triton X-100]. Cell lysates were centrifuged at 13,000 rpm for 30 min. For Western blot analysis, the amount of protein (40 µg) was separated by electrophoresis in a 10% or 15% polyacrylamide gel and transferred to a polyvinylidene difluoride (PVDF) membrane. After 1 h incubation at room temperature in PBS/5% nonfat milk, the membrane was washed with PBS/0.1% and incubated with the indicated antibodies at 4°C overnight. After washings with PBS/0.1% Tween 20, the corresponding secondary antibodies were applied to the membranes for 1 h at room temperature. The membranes were then washed with PBS/0.1% Tween 20 and the detection of signal was done with an enhanced chemiluminescence detection kit (Amersham, Buckinghamshire, UK)."}, "[5]": {"test": "Body weight and adverse effects in xenograft study", "type": "in vivo, nude mice", "conditions": "HCT116 xenograft mice, oral daily treatment", "experimental": "(A) Tumors were measured regularly and growth delay was calculated for treatment groups relative to control tumors (TGD). (B) Kaplan-Meier survival analysis was based on the tumor growth endpoint. (C) Inhibition of tumor growth curves represented a mean±SEM and percentage change in mean tumor volume (percent TGI). (D) Body weights were measured daily during the first week and then 2 times per week. The body weight ratio was calculated relative to the baseline measurement.\nas §2"}, "[6]": {"system": "HCT116 xenograft tumors", "test": "Western blot of HCT116 xenograft tumor tissues", "type": "in vivo, nude mice", "conditions": "200 mg/kg oral daily for 7 days", "experimental": "as §3, with “For Western blot analysis, the amount of protein (40 µg) was separated by electrophoresis in a 10% or 15% polyacrylamide gel and transferred to a polyvinylidene difluoride (PVDF) membrane.” left out\nas §2"}, "[7]": {"system": "NCI-H460", "test": "NCI-60 cell lines screening", "type": "cell-based", "conditions": "Homo sapiens, NCI-H460, Non-Small Cell Lung Cancer panel", "experimental": "(§4) The NCI-60 cancer cell lines screening was conducted by the NCI’s Developmental Therapeutics Program (DTP; http://www.dtp.nci.nih.gov/branches/btb/ivclsp.html)."}, "[8]": {"system": "HL-60 (TB)", "test": "NCI-60 cell lines screening", "type": "cell-based", "conditions": "Leukemia panel", "experimental": "as §4"}, "[9]": {"system": "HCT116 cells", "test": "Western blot caspase 3 and PARP", "type": "cell-based, human", "conditions": "24 h", "experimental": "as §3, with “For Western blot analysis, the amount of protein (40 µg) was separated by electrophoresis in a 10% or 15% polyacrylamide gel and transferred to a polyvinylidene difluoride (PVDF) membrane.” left out"}, "[10]": {"system": "HDACs in HeLa nuclear extracts", "test": "HeLa nuclear extract HDAC activity assay", "type": "biochemical", "experimental": "The HeLa nuclear extract HDAC activity was measured by using the HDAC Fluorescent Activity Assay Kit (BioVision, CA, USA) according to manufacturer’s instructions. Briefly, the HDAC fluorometric substrate and assay buffer were added to HeLa nuclear extracts in a 96-well format and incubated at 37°C for 30 min. The reaction was stopped by adding lysine developer, and the mixture was incubated for another 30 min at 37°C. Additional negative controls included incubation without the nuclear extract, without the substrate, or without both. TSA at 1 µM served as the positive control."}, "[11]": {"molecular_target": "recombinant human HDAC1 (Homo sapiens, UniProt Q13547)", "sequence (Q13547 whole entry)": "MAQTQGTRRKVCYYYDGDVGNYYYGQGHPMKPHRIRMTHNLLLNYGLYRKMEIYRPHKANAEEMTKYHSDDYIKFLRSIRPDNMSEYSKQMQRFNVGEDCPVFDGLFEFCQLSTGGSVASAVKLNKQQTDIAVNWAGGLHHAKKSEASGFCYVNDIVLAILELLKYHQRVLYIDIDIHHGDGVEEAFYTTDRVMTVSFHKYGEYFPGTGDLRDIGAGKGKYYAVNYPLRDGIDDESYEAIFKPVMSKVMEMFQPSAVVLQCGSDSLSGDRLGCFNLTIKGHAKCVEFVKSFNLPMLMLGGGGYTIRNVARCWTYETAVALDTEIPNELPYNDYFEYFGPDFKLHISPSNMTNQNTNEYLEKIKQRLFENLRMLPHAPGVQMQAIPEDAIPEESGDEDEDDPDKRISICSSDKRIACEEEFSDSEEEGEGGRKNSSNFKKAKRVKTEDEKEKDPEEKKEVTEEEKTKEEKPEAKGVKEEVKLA", "test": "biochemical", "from_the_text": "as §5"}, "[12]": {"system": "human HCT116 colorectal cancer xenograft", "test": "HCT116 xenograft, tumor growth inhibition after 15 days dosing", "type": "in vivo, nude mice", "experimental": "as §1\nThe tumor growth curves show the group median tumor volume, on a log scale as a function of time.\nas §2"}, "[13]": {"system": "HCT116 cells", "test": "Flow cytometry cell cycle / sub-G1 analysis", "type": "cell-based, human", "experimental": "After centrifugation, cells were incubated in 0.1 mol/L phosphate-citric acid buffer [0.2 mol/L NaHPO4, 0.1 mol/L citric acid (pH 7.8)] for 20 min at room temperature. Then, the cells were centrifuged and resuspended with 0.5 mL PI solution containing Triton X-100 (0.1%, v/v), RNase (100 µg/mL), and PI (80 µg/mL). DNA content was analyzed with the FACScan and CellQuest software (Becton Dickinson)."}},
  "note": "Values joined by “and” are separate entries in the source; they are usually repeats but may differ in a detail not shown here. Equal values may be shown once.",
  "data": [
    {"smiles": "O=C(C=Cc1ccc2c(c1)CCN2S(=O)(=O)c1ccccc1)NO", "note": "[MPT0E028, 3-(1-benzenesulfonyl-2,3-dihydro-1H-indol-5-yl)-N-hydroxy-acrylamide]", "values": [
      {"measurement": "No. of CR (complete regression)", "setting": "[1]; 50 mg/kg po qd", "value": 0},
      {"measurement": "%TGD (tumor growth delay)", "setting": "[1]; 50 mg/kg po qd", "value": 0, "unit": "%"},
      {"measurement": "T-C", "setting": "[1]; 50 mg/kg po qd", "value": 0, "unit": "days"},
      {"measurement": "Median TTE", "setting": "[1]; 100 mg/kg po qd to endpoint 1200 mm^3", "value": 19.2, "unit": "days"},
      {"measurement": "No. of CR (complete regression)", "setting": "[1]; 100 mg/kg po qd", "value": 1},
      {"measurement": "%TGD (tumor growth delay)", "setting": "[1]; 100 mg/kg po qd", "value": 16, "unit": "%"},
      {"measurement": "T-C", "setting": "[1]; 100 mg/kg po qd", "value": 2.6, "unit": "days"},
      {"measurement": "Median TTE", "setting": "[1]; 200 mg/kg po qd to endpoint 1200 mm^3", "value": 36.9, "unit": "days"},
      {"measurement": "No. of CR (complete regression)", "setting": "[1]; 200 mg/kg po qd", "value": 3},
      {"measurement": "%TGD (tumor growth delay)", "setting": "[1]; 200 mg/kg po qd", "value": 122, "unit": "%"},
      {"measurement": "T-C", "setting": "[1]; 200 mg/kg po qd", "value": 20, "unit": "days"},
      {"measurement": "IC50", "setting": "[2]", "value": "106 ± 23", "unit": "nM"},
      {"measurement": "IC50", "setting": "[3]", "value": "2530 ± 315", "unit": "nM"},
      {"measurement": "histone H3 acetylation (western blot)", "setting": "[4]", "value": "induced stronger hyperacetylation of histone H3 than that of SAHA"},
      {"measurement": "body weight and other adverse effects", "setting": "[5]", "value": "No significant difference in body weight or other adverse effects"},
      {"measurement": "expression of caspase 3, PARP, acetyl-histone H3 and acetyl-tubulin in xenograft tumors", "setting": "[6]", "value": "caspase 3, PARP and acetyl-histone H3 were substantially induced"},
      {"measurement": "GI50", "setting": "[7]", "value": 144, "unit": "nM"},
      {"measurement": "CC50", "setting": "[7]; read-out: LC50 (the source's name)", "value": 21.6, "unit": "µM"},
      {"measurement": "GI50", "setting": "[8]; Homo sapiens", "value": 439, "unit": "nM"},
      {"measurement": "CC50", "setting": "[8]; Homo sapiens, read-out: LC50 (the source's name)", "value": "> 100", "unit": "µM"},
      {"measurement": "TGI", "setting": "[8]", "value": ">100", "unit": "µM"},
      {"measurement": "caspase 3 and PARP activation (western blot)", "setting": "[9]", "value": "induced caspase 3 and PARP activation in a concentration-dependent manner"},
      {"measurement": "times more potent than SAHA in HDAC activity inhibition", "setting": "[10]; HeLa and HCT116 cells, relative to SAHA", "value": "9–30 times and 10–30 times"},
      {"measurement": "IC50", "setting": "[10]; HeLa nuclear extract", "value": 11.1, "unit": "nM"},
      {"measurement": "IC50", "setting": "[11]", "value": "53 ± 12", "unit": "nM"},
      {"measurement": "percent tumor growth inhibition (%TGI)", "setting": "[12]; 100 mg/kg oral once a day for 15 days", "value": 32.0, "unit": "%"},
      {"measurement": "percent tumor growth inhibition (%TGI)", "setting": "[12]; 200 mg/kg oral once a day for 15 days", "value": 73.5, "unit": "%"},
      {"measurement": "sub-G1 population (flow cytometry)", "setting": "[13]", "value": "increased the number of cells in the sub-G1 phase of the cell cycle"}
    ]}
  ]
}
